Data reported in patent publication US9205069B2, “Inhibitors of anaphase promoting complex activity” (President and Fellows of Harvard College, priority 2009, dated 2015).

Key:
[1] = tested on: cyclin B1 degradation and Cdc27 phosphorylation; assay: mitotic arrest in Xenopus extract after MPF addition (Western blot); format: biochemical; conditions: 200 μM, interphase extract plus MPF
APC-Cdc20 = assay: in vitro ubiquitination assay with APC immunopurified from mitotic extract; format: biochemical, Xenopus; conditions: 200 μM, added into ubiquitination reaction
Source text: APC was immunoprecipitated from mitotic extract and tested in an in vitro ubiquitination assay.

[2] = tested on: APC-dependent proteolysis; assay: cyclin B-luciferase degradation in mitotic Xenopus egg extract (luciferase assay); conditions: derivatives tested at 200 μM
Procedure: Samples were collected at 60 minutes and the remaining reporter level was measured by luminescence. Interphase extract was used as a negative control.

APC-Cdh1 = assay: in vitro ubiquitination assay with interphase APC activated by recombinant Cdh1; format: biochemical, Xenopus; conditions: 200 μM, added into ubiquitination reaction
Source text: APC was then immunoprecipitated and tested in an in vitro ubiquitination assay.

[3] = tested on: interaction between APC and IR peptide; assay: APC recruitment from interphase extract by IR peptide resin; format: binding, Xenopus; conditions: 200 μM
Procedure: Top panel: Iodoacetyl resin was coupled with cysteine, a 21aa C-terminal peptide of Cdh1 or a 19aa peptide missing the C-terminal IR tail. The resin was incubated with interphase extract and the amount of Cdc27 bound on resin was analyzed.

Xenopus APC = assay: 3H-TAME binding to APC in interphase extract (Cdc27 immunoprecipitation, scintillation counting); conditions: 200 nM 3H TAME
Procedure: Interphase extract was subjected to three rounds of immunoprecipitation with Cdc27 antibody. […] The specific counts associated with the beads were determined by scintillation counting.
(§1) The specific counts associated with the beads were determined by scintillation counting.
as §1
In parallel, the amount of immunoprecipitated Cdc27 was determined by immunoblot.

human APC = target: T1, human APC (Homo sapiens, UniProt P30260+Q13042+Q9UJX2+Q9UJX3); assay: 3H-TAME binding to APC in asynchronous HeLa cell lysate
T1 construct: endogenous in cells; host or cells: asynchronous HeLa cells (lysate)
Source text: The same experiment was done as described in 3C using asynchronous Hela cell lysate.

[4] = tested on: proteasomal degradation of ubiquitinated cyclin B1; assay: degradation of pre-ubiquitinated 35S-cyclin B1 in interphase extract; format: biochemical, Xenopus; conditions: TAME 200 μM
Procedure: At indicated time points, all protein was precipitated and the level of radioactivity in supernatant was measured by scintillation counting. MG262 was used as a positive control.
A purified MPF complex containing 35S-labeled cyclin B1 was ubiquitinated by APC in a reconstituted ubiquitination system, and then added to interphase Xenopus extract in the presence or absence of inhibitors.

| Structure (SMILES) | cyclin B1 and Cdc27 phosphorylation after MPF addition [1] | APC ligase activity, compound added directly to reconstituted ubiquitination assay (APC-Cdc20) | activity of TAME derivatives in luciferase assay [2] | APC-Cdh1 activity, compound added directly to reconstituted assay (APC-Cdh1) | APC recruitment by IR peptide resin [3] | competition with specific binding of 3H-TAME to Xenopus APC (Xenopus APC) | competition with specific 3H-TAME binding to human APC (human APC) | degradation of pre-ubiquitinated cyclin B1 [4] |
| --- | --- | --- | --- | --- | --- | --- | --- | --- |
| COC(=O)[C@H](CCCNC(=N)N)NC(C)=O [AAME, acetyl-L-arginine methylester] | degraded by 30 min | did not inhibit APC | lowest activity | did not inhibit APC | no effect | did not | did not |  |
| CC(C)C[C@H](NC(=O)[C@H](CC(C)C)NC(=O)[C@H](CC(C)C)NC(=O)OCc1ccccc1)B(O)O [MG262] |  |  |  |  |  |  |  | strongly inhibited |
